What all share (assay type): in vivo
For one series, the system named is Monochoria vaginalis. Kind of series: Test Example 1: herbicidal activity, application before weed generation in submerged conditions (symbol C). Particulars: application herbicide amount 320 g/ha. The gist of the method: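 Flooded alluvial soil (4 cm water) was mixed-sown with the three weed species, and 2.5-leaf rice seedlings were transplanted. On sowing day, a water-diluted emulsion at a predetermined rate was applied to the water surface. After 3 weeks in a 25–30 °C greenhouse, effect was scored 0–5.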

Series [1] concerns directly sowed rice plant. In words: Test Example 3: effect on crop by foliage application, Wagner pot (symbol b). To be noted: application herbicide amount 320 g/ha. The gist of the method:
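Greenhouse culture at 25–30 °C of seeded rice, Cyperus difformis, Leptochloa chinensis and Echinochloa crus-galli var. crus-galli, in alluvial soil held under 0.1–0.5 cm of water in a Wagner pot.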

The subject of another series is Scirpus juncoides. In words: Test Example 2: herbicidal activity, application during weed generation in submerged conditions (symbol B). To be noted: Table 23; application herbicide amount 320 g/ha; grade 0-5 by criteria of Test Example 1. The gist of the method:
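Compound was applied as a water-diluted emulsion into the standing water of flooded pots (4 cm) once co-sown weeds reached one to two leaves. Greenhouse temperature was 25° C. to 30° C., soil was alluvial, and each species was rated visually after 3 weeks.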

The subject of the next series is Lolium multiflorum Lam. In words: Test Example 5: herbicidal effect by foliage application, plastic box (symbol K). Particulars: 320 g/ha, 3 weeks after application. The gist of the method:
(§1)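 After sowing into sterilized diluvial soil and growing two weeks under glass at 25° C. to 30° C., seedlings receive a uniform foliar spray of diluted emulsion. Damage is judged visually three weeks on.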

The test system of another series is beet. In words: Test Example 4: effect on crop by soil treatment (symbol f). To be noted: application herbicide amount 320 g/ha. The gist of the method: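 Crop seeds, among them rice, wheat, beet and rapeseed, were sown in sterilized diluvial soil and covered with about 1.5 cm of soil. Boxes were kept in a greenhouse at 25° C. to 30° C. for plant growth.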
A further series concerns Abutilon theophrasti. Kind of series: Test Example 4: herbicidal effect by soil treatment (symbol M). Particulars: application herbicide amount 320 g/ha. The gist of the method: (§2)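 Seeds were sown in sterilized diluvial soil, covered with about 1.5 cm of soil, and the soil surface was sprayed with a water-diluted emulsion of the compound at a predetermined rate. Plants grew in a greenhouse at 25° C. to 30° C.; effects were scored visually 3 weeks after application.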

Series [2] relates to Echinochloa crus-galli var. crus-galli. Kind of series: Test Example 5: herbicidal effect by foliage application, plastic box (symbol H). Particulars: 320 g/ha, 3 weeks after application. The gist of the method: as §1
In the next series the test system is soybean. In words: Test Example 5: effect on crop by foliage application, plastic box (symbol d). Particulars: 320 g/ha, 3 weeks after application. An outline of the steps:
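Foliage-application test plants come from spot sowing in sterilized diluvial soil under a soil layer of about 1.5 cm, grown at 25° C. to 30° C. in a greenhouse.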

The test system of a further series is Stellaria media. In words: Test Example 4: herbicidal effect by soil treatment (symbol P). Particulars: application herbicide amount 320 g/ha. The gist of the method: as §2

On to `COc1cc(Br)cc(C)c1C1=C(O)CC(CC(C)=O)C1=O` (stereo not drawn) [7-027, 2-(4-bromo-2-methoxy-6-methylphenyl)-3-hydroxy-5-(2-oxopropyl)cyclopent-2-enone], for which, in the series on Monochoria vaginalis, the “Herbicidal effect grade, C: Monochoria vaginalis” value (shortened to “Herbicidal effect grade, C”) is 2 (Herbicidal ratio of 20% or higher and lower than 40%). Moreover, the “b (directly sowed rice plant) effect on crop grade” value in [1] (Table 24) is recorded as 5 (Herbicidal ratio of 90% or more (almost completely withered)). Moreover, in the series on Scirpus juncoides, the “Herbicidal effect grade, B: Scirpus juncoides” value (“Herbicidal effect grade, B” below) was 0 (Herbicidal ratio of 5% or lower (almost no effect)). Moreover, the “K: Lolium multiflorum Lam., herbicidal effect (criteria of Test Example 1)” value in the series on Lolium multiflorum Lam. is reported as 5 (Herbicidal ratio of 90% or more (almost completely withered)). Further, in the series with beet, the “Effect on crop grade, f: beet” value is reported as 0 (Herbicidal ratio of 5% or lower (almost no effect)). Moreover, the “Herbicidal effect grade, M: Abutilon theophrasti” value in the series on Abutilon theophrasti is reported as 0 (Herbicidal ratio of 5% or lower (almost no effect)). For the same compound, in [2], the “H: Echinochloa crus-galli var. crus-galli, herbicidal effect (criteria of Test Example 1)” value is reported as 5 (Herbicidal ratio of 90% or more (almost completely withered)). Further, in the series on soybean, the “d: soybean, effect on crop (criteria of Test Example 1)” value (“d: soybean, effect on crop” below) is listed as 0 (Herbicidal ratio of 5% or lower (almost no effect)). In addition, the “Herbicidal effect grade, P: Stellaria media” value in the series on Stellaria media was 0 (Herbicidal ratio of 5% or lower (almost no effect)).

With `CON=C(C)CC1CC(O)=C(c2c(C)cc(-n3cncn3)cc2C)C1=O` (stereo not drawn) [6-074], the “Herbicidal effect grade, C” value in the series with Monochoria vaginalis is 0 (Herbicidal ratio of 5% or lower (almost no effect)). Besides, the “effect on crop b (directly sowed rice plant), grade 0-5” value in series [1] is 1 (Herbicidal ratio of 5% or higher and lower than 20%). Also, the “Herbicidal effect grade, B” value with Scirpus juncoides is reported as 0 (Herbicidal ratio of 5% or lower (almost no effect)). Also, the “K: Lolium multiflorum Lam., herbicidal effect (criteria of Test Example 1)” value in the series with Lolium multiflorum Lam. is 2 (Herbicidal ratio of 20% or higher and lower than 40%). Besides, the “f: beet, effect on crop grade” value with beet is reported as 0 (Herbicidal ratio of 5% or lower (almost no effect)). Further, the “M: Abutilon theophrasti, herbicidal effect grade” value in the series with Abutilon theophrasti was 0 (Herbicidal ratio of 5% or lower (almost no effect)). Also, the “H: Echinochloa crus-galli var. crus-galli, herbicidal effect (criteria of Test Example 1)” value in series [2] was 3 (Herbicidal ratio of 40% or higher and lower than 70%). Also, in the series with soybean, the “d: soybean, effect on crop” value is 0 (Herbicidal ratio of 5% or lower (almost no effect)). The “P: Stellaria media, herbicidal effect grade” value with Stellaria media is given as 0 (Herbicidal ratio of 5% or lower (almost no effect)).

For `CON=C(C)CC1CC(O)=C(c2c(C)cc(-c3ccccc3)cc2OC)C1=O` (stereo not drawn) [6-099], in the series with Monochoria vaginalis, the “Herbicidal effect grade, C” value is listed as 5 (Herbicidal ratio of 90% or more (almost completely withered)). Moreover, in [1], the “effect on crop b (directly sowed rice plant), grade 0-5” value is 5 (Herbicidal ratio of 90% or more (almost completely withered)). Besides, the “Herbicidal effect grade, B” value in the series on Scirpus juncoides is listed as 5 (Herbicidal ratio of 90% or more (almost completely withered)). The “K: Lolium multiflorum Lam., herbicidal effect (criteria of Test Example 1)” value with Lolium multiflorum Lam. was 5 (Herbicidal ratio of 90% or more (almost completely withered)). Further, in the series with beet, the “Effect on crop grade, f: beet” value is 2 (Herbicidal ratio of 20% or higher and lower than 40%). In addition, the “Herbicidal effect grade, M: Abutilon theophrasti” value with Abutilon theophrasti is 3 (Herbicidal ratio of 40% or higher and lower than 70%). Moreover, the “H: Echinochloa crus-galli var. crus-galli, herbicidal effect (criteria of Test Example 1)” value in series [2] was 5 (Herbicidal ratio of 90% or more (almost completely withered)). Further, the “d: soybean, effect on crop” value in the series on soybean is 4 (Herbicidal ratio of 70% or higher and lower than 90%). For the same compound, in the series with Stellaria media, the “Herbicidal effect grade, P: Stellaria media” value is 4 (Herbicidal ratio of 70% or higher and lower than 90%).

Source of the values: US11000033B2, “Ketone or oxime compound, and herbicide” (NISSAN CHEMICAL CORPORATION, priority 2014, dated 2021).
